Source: US5977174A, “Cholinergic compositions and uses thereof” (Neuromedica, Inc., priority 1997, dated 1999)
Like-named read-outs stand apart in the source and are kept apart here.

Tests used:
Solubility = format: physicochemical; conditions: for Solubility in solvents: organic solvents, water; for solubility: read-out: Solubility: amount dissolved in 1.0 mL
Stability = format: physicochemical
Method: The compound should be kept at -20° C. under Argon.

[1] = animal models, clinical trials; cited from earlier work
[2] = models of aging; cited from earlier work
[3] = cited from earlier work
[4] = tested on: locomotor activity of mice; assay: Locomotor activity study (dose-response of DHA-choline-induced locomotor depression); format: in vivo, male Swiss-Webster mice (Hsd:ND4); conditions: 20 min pretreatment
Method: A dose-response study of DHA-choline-induced locomotor depression was conducted using 40 Digiscan locomotor activity testing chambers (40.5×40.5×30.5 cm) housed in sets of two, within sound attenuating chambers. A panel of infrared beams (16 beams) and corresponding photo detectors were located in the horizontal direction along the sides of each activity chamber. A 7.5W incandescent light above each chamber provided dim illumination. Fans provided an 80-dB ambient noise level within the chamber. Separate groups of 8 non-habituated male Swiss-Webster mice (Hsd:ND4, aged 2-3 mo.) were injected via the intraperitoneal route (i.p.) with either vehicle or DHA-choline (0.5, 2.5, 5, 10, 20 or 40 mg/kg), 20 minutes prior to locomotor activity testing. In all studies, the total distance (cm traversed in the horizontal plane) was measured for 2 hours within 10 min periods.
The figures show the dose response data for the locomotor activity (Stewart et al., Psychopharmacol 60:281, 1979) of mice injected with different doses of the compound. The figures show average distance per 10 min as a function of time (FIG. 1) and dose (FIG. 2) 20 minutes following DHA-choline pretreatment. The period 0-30 min was selected for analysis of dose-response data because this is the time period in which DHA-choline produced maximal effects. […]

rat brain = assay: Infarct volume after MCA occlusion of rat brain (triphenyltetrazolium chloride staining); format: in vivo; conditions: 50 mg/kg i.p. at three hours after initiation of the stroke event; n=5
Method: Two sets of experiments were carried out. In the first set, rats were administered with 50 mg/kg of DHA-choline i.p. at 30 minutes prior to occlusion of the middle cerebral artery of the left side of the brain using a standard highly reproducible animal model of stroke (Karpiak et al., J. Neurosci Res.30:512-520, 1991). Occlusion of the middle cerebral artery inhibits blood flow to a major portion of the left cortical and subcortical regions of the brain. After a two hour period, the occluded blood vessel was opened to allow reperfusion of the brain, and anesthesia was terminated. Each animal received additional doses of 50 mg/kg of DHA-choline 24 and 48 hours later.
The animals were sacrificed, perfused with formalin fixative, brains were sliced into seven 2 mm thick coronal sections, and stained with triphenyltetrazolium chloride (Watson et al., J. Neurosci. Methods 53:203-208, 1994). In this test, tissue that contains intact mitochondria stains red, whereas dead tissue with damaged mitochondria picks up no stain and remains white. Each unstained area on the left side of a section was measured and compared to the total area of the control non-occluded right side of the same section of the brain. The area of damaged (white) brain tissue cells was calculated as a percent of the intact right side of a section. […] (n=5 per group.) […]

SMILES: CC/C=C\C/C=C\C/C=C\C/C=C\C/C=C\C/C=C\CCC(=O)OCCN(C)C [2-dimethylaminoethyl docosahexaenoate]
- Solubility in solvents (Solubility): soluble in EtOAc, Et2 O, CH2 C2, CHCl3, EtOH insoluble in H2 O
- Stability in air (appearance) (Stability; exposed in the air for several days): turns dark when exposed in the air for several days

SMILES: C[N+](C)(C)CCOP(=O)(O)OP(=O)([O-])OC[C@H]1O[C@@H](n2ccc(N)nc2=O)[C@H](O)[C@@H]1O [CDP-choline, Cytidine 5'-diphosphocholine]
- neuroprotective effect [1]: neuroprotective effect
- effect on memory and learning deficits [2]: improves memory and learning deficits

SMILES: CC/C=C\C/C=C\C/C=C\C/C=C\C/C=C\C/C=C\CCC(=O)O [DHA, cis-docosahexaenoic acid]
- stability in the presence of oxygen [3]: can be unstable in the presence of oxygen

SMILES: CC/C=C\C/C=C\C/C=C\C/C=C\C/C=C\C/C=C\CCC(=O)OCC[N+](C)(C)C [DHA-choline, Docosahexaenoyl Choline Iodide]
- ED50 ([4]; Mus musculus, ip, 0-30 min period, maximal depressant activity = 0 cm/30 min, read-out: ID50 dose producing 1/2 maximal depressant activity (locomotor activity)): 12.9 mg/kg
- time period of maximal effects ([4]; i.p.): 0 to 30 min
- infarct volume relative to vehicle controls (rat brain): approximately 50%
- solubility (Solubility; 1.0 mL ascorbic acid in saline with 0.02 mL detergent): 5500 µg/mL
- solubility (Solubility; 10% albumin saline with detergent, 1.0 mL 10% albumin in saline with 0.01 mL detergent): 7800 µg/mL
- Solubility in solvents (Solubility): soluble in CH2 Cl2, CHCl3, EtOAc, EtOH insoluble in hexanes, Et2 O
- Stability in air (1H NMR analysis) (Stability; exposed in the air for 5 days): had not decomposed
- Stability on long exposure to air (Stability; exposed in the air for too long): will decompose
